The values below are quoted from earlier work in US8821904B2, “Topical composition and use thereof for the prophylaxis and the treatment of defects connected to inflammatory dermopathies” (Skinius S.R.L., priority 2010, dated 2014).

This data set relates to seborrhoeic eczema. To be noted: topically applied, after four weeks of treatment.

As for `CC(=O)N1CCN(c2ccc(OCC3COC(Cn4ccnc4)(c4ccc(Cl)cc4Cl)O3)cc2)CC1` (stereo not shown) [ketoconazole], the “Improvement of seborrhoeic eczema, percentage of the cases” value is 75%.
